Active and inactive are the calls of the source. The rule behind the calls is not given here.
Assays:
[1] = target: T1, Mu-type opioid receptor (Homo sapiens, UniProt P35372); assay: Agonist activity at human MOR expressed in CHO-K1 cells co-expressed with Galphai by cAMP assay; assay type: functional, cell-based
[2] = target: T1, Mu-type opioid receptor; assay: Agonist activity at human MOR expressed in CHO-K1 cells co-expressed with Galphai by cAMP assay relative to control; assay type: functional, cell-based
[3] = target: T2, Nociceptin receptor (Homo sapiens, UniProt P41146); assay: Agonist activity at human NOP receptor expressed in CHO-K1 cells co-expressed with Galphai by cAMP assay relative to control; assay type: functional, cell-based
T2 sequence (P41146 whole entry): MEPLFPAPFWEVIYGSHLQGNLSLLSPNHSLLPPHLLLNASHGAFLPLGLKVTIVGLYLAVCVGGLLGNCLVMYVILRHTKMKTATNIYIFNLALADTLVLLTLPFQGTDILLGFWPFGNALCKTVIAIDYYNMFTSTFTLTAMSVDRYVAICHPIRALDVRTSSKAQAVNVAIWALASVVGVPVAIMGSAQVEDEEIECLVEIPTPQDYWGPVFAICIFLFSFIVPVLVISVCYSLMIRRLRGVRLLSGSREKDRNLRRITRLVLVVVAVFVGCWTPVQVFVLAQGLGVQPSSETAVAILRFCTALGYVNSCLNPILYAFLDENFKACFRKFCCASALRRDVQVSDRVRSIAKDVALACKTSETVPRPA

[4] = target: T2, Nociceptin receptor; assay: Agonist activity at human NOP receptor expressed in CHO-K1 cells co-expressed with Galphai by cAMP assay; assay type: functional, cell-based
[5] = tested on: Mus musculus; assay: Antinociceptive activity in wild type C57BL/6 mouse assessed as maximum possible effect at 12 mg/kg measured upto 60 mins by tail-flick test; assay type: functional; conditions: 1 h
[6] = tested on: Mus musculus; assay: Induction of motivational effect in C57BL/6 mouse assessed as increase in number of jumps at 2.5 microg/kg, sc administered daily twice for 5 days by CPP analysis; assay type: functional, organism-based; conditions: dose 2.5 µg/kg, time 5.0 day
[7] = target: T1, Mu-type opioid receptor; assay: Displacement of [3H]-Diprenorphine from human MOR expressed in CHO-K1 cell membrane assessed as inhibition constant; assay type: cell membranes
[8] = target: T2, Nociceptin receptor; assay: Displacement of [3H]-Nociceptin from human NOP receptor expressed in CHO-K1 cell membrane assessed as inhibition constant; assay type: cell membranes
[9] = target: T1, Mu-type opioid receptor; assay: Agonist activity at human MOR expressed in CHO-K1 cells assessed as beta arrestin-2 recruitment; assay type: functional, cell-based
[10] = target: T2, Nociceptin receptor; assay: Agonist activity at human NOP receptor expressed in CHO-K1 cells assessed as beta arrestin-2 recruitment; assay type: functional, cell-based
[11] = Drug concentration in mouse plasma at 2 mg/kg,sc measured after 5 mins by ICP-MS analysis; assay type: ADME, organism-based
[12] = Drug concentration in mouse plasma at 2 mg/kg,sc measured after 60 mins by ICP-MS analysis; assay type: ADME, organism-based
[13] = Drug concentration in mouse brain at 2 mg/kg,sc measured after 5 mins by ICP-MS analysis; assay type: ADME, organism-based; conditions: read-out: Ct
[14] = Drug concentration in mouse brain at 2 mg/kg,sc measured after 60 mins by ICP-MS analysis; assay type: ADME, organism-based; conditions: read-out: Ct
[15] = Drug concentration in mouse intestine at 2 mg/kg,sc measured after 5 mins by ICP-MS analysis; assay type: ADME, organism-based; conditions: read-out: Ct
[16] = Drug concentration in mouse intestine at 2 mg/kg,sc measured after 60 mins by ICP-MS analysis; assay type: ADME, organism-based; conditions: read-out: Ct
[17] = target: T1, Mu-type opioid receptor; assay: Agonist activity at human MOR expressed in CHO-K1 cells assessed as decrease in intracellular cAMP level at 1 uM in presence of naltrexone; assay type: functional, cell-based; conditions: filed as agonist
[18] = target: T2, Nociceptin receptor; assay: Agonist activity at human NOP receptor expressed in CHO-K1 cells assessed as decrease in intracellular cAMP level at 1 uM in presence of BAN ORL 24; assay type: functional, cell-based; conditions: filed as agonist
[19] = tested on: Mus musculus; assay: Induction of motivational effect in C57BL/6 mouse assessed as increase in reward behaviour at 284 microg/kg, sc administered for 4 days and measured on day 6 by CPP analysis; assay type: functional, organism-based; conditions: dose 284.0 µg/kg, time 6.0 day
[20] = tested on: Mus musculus; assay: Induction of motivational effect in C57BL/6 mouse assessed as increase in number of jumps at 284 microg/kg, sc administered daily twice for 5 days by CPP analysis; assay type: functional, organism-based; conditions: dose 284.0 µg/kg, time 5.0 day
[21] = tested on: Mus musculus; assay: Antinociceptive activity in thermal stimulated sc dosed wild type C57BL/6 mouse measured upto 120 mins by tail flick test; assay type: functional; conditions: C57BL/6, 2 h
[22] = tested on: Mus musculus; assay: Antinociceptive activity in thermal stimulated wild type C57BL/6 mouse at 284 to 568 microg/kg, sc measured at 30 to 60 mins by tail flick test; assay type: functional, organism-based; conditions: dose 284-568 µg/kg, time 30-60 min
[23] = tested on: Mus musculus; assay: Antinociceptive activity in thermal stimulated MOR-knockout C57BL/6 mouse assessed as delay in flick tail at 252.8 microg/kg, sc measured upto 120 mins by tail flick test; assay type: functional, organism-based; conditions: dose 252.8 µg/kg
[24] = tested on: Mus musculus; assay: Antinociceptive activity in thermal stimulated sc dosed hMOR/mMOR knockout C57BL/6 mouse measured upto 120 mins by tail flick test; assay type: functional; conditions: C57BL/6, 2 h
[25] = tested on: Mus musculus; assay: Antinociceptive activity in thermal stimulated hMOR/mMOR knockout C57BL/6 mouse at 402 microg/kg,sc measured after 30 to 60 mins by tail flick test; assay type: functional, organism-based; conditions: dose 402.0 µg/kg, time 30-60 min
[26] = tested on: Mus musculus; assay: Antinociceptive activity in thermal stimulated wild type C57BL/6 mouse assessed as drug tolerance at 568 microg/kg, sc administered twice daily for 5 days and measured on day 1, 3, and 5 after 30 mins post drug treatment by tail flick test; assay type: functional, organism-based; conditions: dose 568.0 µg/kg, time 5.0 day
[27] = tested on: Mus musculus; assay: Antinociceptive activity in thermal stimulated hMOR/mMOR knockout C57BL/6 mouse assessed as drug tolerance at 402 microg/kg, sc administered twice daily for 5 days and measured on day 1, 3, and 5 after 30 mins post drug treatment by tail flick test; assay type: functional, organism-based; conditions: dose 402.0 µg/kg, time 5.0 day

T1 sequence (P35372 whole entry): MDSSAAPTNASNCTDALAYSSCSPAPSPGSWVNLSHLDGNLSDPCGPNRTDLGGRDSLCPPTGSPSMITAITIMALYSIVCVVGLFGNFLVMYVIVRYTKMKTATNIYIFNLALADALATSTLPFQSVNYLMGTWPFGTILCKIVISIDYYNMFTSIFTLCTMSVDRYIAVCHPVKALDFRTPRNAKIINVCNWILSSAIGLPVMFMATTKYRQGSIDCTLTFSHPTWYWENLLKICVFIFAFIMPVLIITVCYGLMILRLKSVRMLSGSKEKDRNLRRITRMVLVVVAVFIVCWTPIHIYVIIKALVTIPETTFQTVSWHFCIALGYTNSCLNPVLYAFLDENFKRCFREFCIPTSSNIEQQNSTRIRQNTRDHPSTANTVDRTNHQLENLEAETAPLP

CN(C)C(CNC(=O)NCc1ccc(Cl)cc1)c1cccc(F)c1 (stereo unspecified)
EC50 [1]: 0.00033 nM
Emax ([2]; filed as agonist): 84.7%
Emax [3]: < 20%

CN(C)C(CNC(=O)NCCc1ccc(C(F)(F)F)cc1)c1cccc(F)c1 (stereo unspecified)
EC50 [1]: 0.000501 nM
Emax ([2]; filed as agonist): 88.5%
EC50 [4]: 0.06 nM
Emax ([3]; filed as agonist): 57.5%
MPE [5]: 39.05%

CN(C)C(CNC(=O)NCCCc1ccccc1)c1cccc(F)c1 (stereo unspecified)
EC50 [1]: 0.631 nM
Emax ([2]; filed as agonist): 80.2%
EC50 [4]: 0.711 nM
Emax ([3]; filed as agonist): 66.6%

CN(C)C(CNC(=O)NC1CCCC1)c1cccc(F)c1 (stereo unspecified)
Emax [2]: < 20%
EC50 [4]: 2.6 nM
Emax ([3]; filed as agonist): 67.1%

CN(C)C(CNC(=O)NCCc1cccc(F)c1)c1cccc(F)c1 (stereo unspecified)
EC50 [1]: 0.000374 nM
Emax ([2]; filed as agonist): 90.8%
Emax ([3]; filed as agonist): 92.6%
MPE [5]: 0%

Cc1cccc(CCNC(=O)NCC(c2cccc(F)c2)N(C)C)c1 (stereo unspecified)
Emax ([2]; filed as agonist): 89.7%
Emax ([3]; filed as agonist): 67%
MPE [5]: 0%

CN(C)C(CNC(=O)NCc1cccc(OC(F)(F)F)c1)c1cccc(F)c1 (stereo unspecified)
EC50 [1]: 0.0164 nM
Emax ([2]; filed as agonist): 77.9%
EC50 [4]: 0.02 nM
Emax ([3]; filed as agonist): 80.4%

CN(C)C(CNC(=O)NCCc1cccc(Cl)c1)c1cccc(F)c1 (stereo unspecified)
Emax ([2]; filed as agonist): 89.9%
Emax ([3]; filed as agonist): 91.6%
MPE [5]: 0%

CN(C)C(CNC(=O)NCc1cccc(C(F)(F)F)c1)c1cccc(F)c1 (stereo unspecified)
EC50 [1]: 0.00066 nM
Emax ([2]; filed as agonist): 85.2%
Emax [3]: < 20%

Cc1ccc(CNC(=O)NCC(c2cccc(F)c2)N(C)C)cc1 (stereo unspecified)
Emax ([2]; filed as agonist): 88%
Emax [3]: < 20%

Cc1cccc(CNC(=O)NCC(c2cccc(F)c2)N(C)C)c1 (stereo unspecified)
EC50 [1]: 0.526 nM
Emax ([2]; filed as agonist): 91.4%
EC50 [4]: 2130 nM
Emax ([3]; filed as agonist): 67.1%

CN(C)C(CNC(=O)NCc1cccc(F)c1)c1cccc(F)c1 (stereo unspecified)
Emax ([2]; filed as agonist): 91.2%
Emax ([3]; filed as agonist): 89.8%

CN(C)C(CNC(=O)NCc1ccc(C(F)(F)F)cc1)c1cccc(F)c1 (stereo unspecified)
EC50 [1]: 0.19 nM
Emax ([2]; filed as agonist): 93.3%
EC50 [4]: 0.71 nM
Emax ([3]; filed as agonist): 92.3%
MPE [5]: 0%

CN1CC[C@]23c4c5ccc(O)c4O[C@H]2[C@@H](O)C=C[C@H]3[C@H]1C5
Activity [6]: Active

CN(C)C(CNC(=O)NCCc1cccc(C(F)(F)F)c1)c1cccc(F)c1 (stereo unspecified)
EC50 [1]: 0.0186 nM
Emax ([2]; filed as agonist): 74.1%
Emax [3]: < 20%

Cc1ccc(CCNC(=O)NCC(c2cccc(F)c2)N(C)C)cc1 (stereo unspecified)
EC50 [1]: 15.1 nM
Emax ([2]; filed as agonist): 80.7%
EC50 [4]: 209 nM
Emax ([3]; filed as agonist): 76.9%

CN(C)C(CNC(=O)NCCc1ccccc1)c1cccc(F)c1 (stereo unspecified)
EC50 [1]: 21 nM
Emax ([2]; filed as agonist): 86.6%
EC50 [4]: 2.96 nM
Emax ([3]; filed as agonist): 72%

CN(C)C(CNC(=O)NCc1cccc(Cl)c1)c1cccc(F)c1 (stereo unspecified)
EC50 [1]: 0.000102 nM
Emax ([2]; filed as agonist): 92.5%
EC50 [4]: 0.000126 nM
Emax ([3]; filed as agonist): 91.6%
MPE [5]: 100%
Ki [7]: 0.4 nM
Ki [8]: 0.2 nM
EC50 [9]: 3.99 nM
EC50 [10]: 0.2 nM
concentration at 5 min [11]: 673 ng/mL
concentration at 1 h [12]: 119 ng/mL
concentration at 5 min [13]: 838 ng/g
concentration at 1 h [14]: 237 ng/g
concentration at 5 min [15]: 1290 ng/g
concentration at 1 h [16]: 454 ng/g
Activity [17]: Active
Activity [18]: Active
Activity [19]: inactive
Activity [20]: inactive
ED50 [21]: 0.284 mg/kg
Activity [22]: Active
Activity [23]: inactive
ED50 [24]: 0.402 mg/kg
Activity [25]: Active
Activity [26]: inactive
Activity [27]: inactive

CN(C)C(CNC(=O)NCc1ccc(OC(F)(F)F)cc1)c1cccc(F)c1 (stereo unspecified)
EC50 [1]: 1.52 nM
Emax ([2]; filed as agonist): 76.9%
EC50 [4]: 2420 nM
Emax ([3]; filed as agonist): 61.9%

CN(C)C(CNC(=O)NCCc1ccc(F)cc1)c1cccc(F)c1 (stereo unspecified)
Emax ([2]; filed as agonist): 81.1%
EC50 [4]: 0.000126 nM
Emax ([3]; filed as agonist): 58.4%

CN(C)C(CNC(=O)NCCc1ccc(Cl)cc1)c1cccc(F)c1 (stereo unspecified)
Emax ([2]; filed as agonist): 72.4%
EC50 [4]: 0.61 nM
Emax ([3]; filed as agonist): 53.9%

CN1CCc2ccccc2C1CNC(=O)c1ccc(Cl)c(Cl)c1 (stereo unspecified)
EC50 [1]: 0.0234 nM
Emax ([2]; filed as agonist): 93.6%
EC50 [4]: 0.17 nM
Emax ([3]; filed as agonist): 87%

CN(C)C(CNC(=O)Nc1cccc(Cl)c1)c1cccc(F)c1 (stereo unspecified)
EC50 [1]: 0.1 nM
Emax ([2]; filed as agonist): 72.5%
Emax [3]: < 20%

CN(C)C(CNC(=O)NCc1ccc(F)cc1)c1cccc(F)c1 (stereo unspecified)
Emax ([2]; filed as agonist): 96.1%
Emax ([3]; filed as agonist): 93.2%
MPE [5]: 100%

CN(C)C(CNC(=O)Nc1ccc(Cl)c(Cl)c1)c1cccc(F)c1 (stereo unspecified)
Emax ([2]; filed as agonist): 68.5%
EC50 [4]: 37.2 nM
Emax ([3]; filed as agonist): 74.1%

From ChEMBL document CHEMBL5620432 (Eur J Med Chem, 2023)
